One experiment deals with T1, recombinant human ULK1 protein (1-649) (Homo sapiens, UniProt O75385).
T1 construct: recombinant human ULK1 protein (1-649, SignalChem #U01-11G); purchased SignalChem U01-11G
T1 sequence (O75385 1-649): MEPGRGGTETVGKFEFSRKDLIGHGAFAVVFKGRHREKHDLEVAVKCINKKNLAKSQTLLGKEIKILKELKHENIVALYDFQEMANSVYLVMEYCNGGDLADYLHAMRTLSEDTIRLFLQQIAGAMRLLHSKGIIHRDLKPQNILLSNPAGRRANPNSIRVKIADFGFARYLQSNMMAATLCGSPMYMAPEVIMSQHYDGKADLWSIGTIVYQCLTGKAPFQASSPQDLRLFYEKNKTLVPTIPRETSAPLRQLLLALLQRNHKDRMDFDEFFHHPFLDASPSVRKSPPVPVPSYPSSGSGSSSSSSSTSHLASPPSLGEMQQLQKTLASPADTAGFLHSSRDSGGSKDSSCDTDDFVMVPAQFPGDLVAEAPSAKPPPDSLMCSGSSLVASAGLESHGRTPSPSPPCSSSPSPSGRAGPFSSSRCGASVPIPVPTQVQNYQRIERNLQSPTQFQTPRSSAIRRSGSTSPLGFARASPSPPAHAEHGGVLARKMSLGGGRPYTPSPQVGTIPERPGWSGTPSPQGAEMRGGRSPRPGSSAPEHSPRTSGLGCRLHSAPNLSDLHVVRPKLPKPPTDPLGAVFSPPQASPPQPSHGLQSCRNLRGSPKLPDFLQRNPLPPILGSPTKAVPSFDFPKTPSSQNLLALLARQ
Briefly: ULK1 inhibition assay (ADP Glo). The format is biochemical. The note with it: Table 1; 25 uM ATP, MBP substrate, one hour. The protocol: Illustrative compounds of Formula I and related analogs are shown in Table 1 (along with their respective IC50 values for ULK1 inhibition assays). For ADP Glo assay, IC50s are represented nM, with A representing IC50<1 nM, B representing 10 nM>IC50>1 nM, and C representing IC50>10 nM. NT indicates the compound was not tested. ULK1 inhibition assays were performed in a 5 uL reaction volume containing 2 ug/mL recombinant human ULK1 protein (1-649, SignalChem #U01-11G) and 80 ug/mL myelin basic protein (MBP, Sigma-Aldrich #M1891) in the presence of 25 uM ATP (Sigma-Aldrich A7699). ULK 1 inhibition was assessed after one hour. Compounds were tested in triplicate in a 16-dose IC50 mode with 3-fold serial dilution and a starting dose of 30 uM. Staurosporine, a non-selective protein kinase inhibitor, was used in the assay as a positive control.
According to another embodiment, the present disclosure provides methods of producing the above-defined compounds. The compounds may be synthesized using any suitable techniques. Advantageously, these compounds are conveniently synthesized from readily available starting materials. Synthetic chemistry transformations and methodologies useful in synthesizing the compounds described herein are known in the art and include, for example, those described in R. Larock, Comprehensive Organic Transformations (1989); T. W. Greene and P. G. M. Wuts, Protective Groups in Organic Synthesis, 2d. Ed. (1991); L. Fieser and M. Fieser, Fieser and Fieser's Reagents for Organic Synthesis (1994); and L. Paquette, ed., Encyclopedia of Reagents for Organic Synthesis (1995).). In general, synthesis and measurements of ULK1 inhibitory activity of the compounds described herein was performed using method analogous to those previously described in PCT International Application No. PCT/US2015/046777 which is hereby incorporated by reference in its entirety.
The IC50 is the concentration needed to halve the response being measured. In the case of `CSCCN1CCc2ccc(Nc3ncc(C(F)(F)F)c(NC4CC4)n3)cc2C1` [Compound A81], the IC50 is under 0.001 µM.
Turning to `CC(C)(C)OC(=O)N1CCc2ccc(Nc3ncc(C(F)(F)F)c(NC4CC4)n3)cc2C1` [Compound A15], the IC50 was 0.001 to 0.01 µM.
Consider `CNC(=O)c1ccccc1Nc1nc(Nc2ccc3c(c2)CCN(C)C3)ncc1Br` [Compound A135, 2-[5-Bromo-2-(2-methyl-1,2,3,4-tetrahydro-isoquinolin-6-ylamino)-pyrimidin-4-ylamino]-N-methyl-benzamide], for which the IC50 is over 0.01 µM.
On the same count and under the same terms, to `CC(C)(C)OC(=O)NCCC(=O)N1CCc2cc(Nc3ncc(C(F)(F)F)c(NC4CC4)n3)ccc2C1` [Compound A29] belongs under 0.001 µM; to `FC(F)(F)c1cnc(Nc2ccc3c(c2)CCN(CC2CNC2)C3)nc1NC1CC1` [Compound A41], under 0.001 µM; to `CNC(=O)c1ccccc1Nc1nc(Nc2ccc3c(c2)CN(CCN)CC3)ncc1Br` [Compound A151, 2-{2-[2-(2-Amino-ethyl)-1,2,3,4-tetrahydro-isoquinolin-7-ylamino]-5-bromo-pyrimidin-4-ylamino}-N-methyl-benzamide], over 0.01 µM.
Same read-out and setting: under `CS(=O)(=O)N1CCc2ccc(Nc3ncc(C(F)(F)F)c(NC4CC4)n3)cc2C1` [Compound A104] stands 0.001 to 0.01 µM.
The same measure, in the same setting: under `CC(C)(C)OC(=O)N1CCc2cc(Nc3ncc(C(=O)O)c(NC4CC4)n3)ccc2C1` [Compound A30] stands over 0.01 µM; under `O=C(O)c1cnc(Nc2ccc3c(c2)CCNC3)nc1NC1CC1` [Compound A85], over 0.01 µM; under `NCC(=O)Nc1cnc(Nc2ccc3c(c2)CCNC3)nc1NC1CC1` [Compound A26], over 0.01 µM.
Turning to `NCC(=O)N1CCc2cc(Nc3ncc(C(F)(F)F)c(NC4CC4)n3)ccc2C1` [Compound A27], the IC50 was under 0.001 µM.
Still for that read-out and setting: to `O=C(O)CCN1CCc2ccc(Nc3ncc(C(F)(F)F)c(NC4CC4)n3)cc2C1` [Compound A88] belongs 0.001 to 0.01 µM; to `CCN1CCc2cc(Nc3ncc(C(F)(F)F)c(NC4CC4)n3)ccc2C1` [Compound A60], 0.001 to 0.01 µM.
As to `CNC(=O)c1ccccc1Nc1nc(Nc2ccc3c(c2)CN(C(=O)N2CCN(C)CC2)CC3)ncc1Br` [Compound A150, 2-{5-Bromo-2-[2-(4-methyl-piperazine-1-carbonyl)-1,2,3,4-tetrahydro-isoquinolin-7-ylamino]-pyrimidin-4-ylamino}-N-methyl-benzamide], the IC50 was over 0.01 µM.
On the same count and under the same terms, under `FC(F)(F)c1cnc(Nc2ccc3c(c2)CNCC3)nc1NC1CC1` [Compound A16] stands under 0.001 µM; under `CC(C)(C)OC(=O)C1Cc2ccc(Nc3ncc(C(F)(F)F)c(NC4CC4)n3)cc2C1` (centres unmarked) [Compound A54], 0.001 to 0.01 µM; under `NCCC(=O)N1CCc2cc(Nc3ncc(C(F)(F)F)c(NC4CC4)n3)ccc2C1` [Compound A31], under 0.001 µM.
Same read-out and setting: to `N[C@@H](CC(=O)O)C(=O)N1CCc2cc(Nc3ncc(C(F)(F)F)c(NC4CC4)n3)ccc2C1` (racemic) [Compound A66] belongs under 0.001 µM; to `OCCN1CCc2ccc(Nc3ncc(C(F)(F)F)c(NC4CC4)n3)cc2C1` [Compound A106], 0.001 to 0.01 µM.
Same read-out and setting: under `O=C(NCCO)c1cnc(Nc2ccc3c(c2)CCNC3)nc1NC1CC1` [Compound A36] stands over 0.01 µM; under `CNC(=O)c1ccccc1Nc1nc(Nc2ccc3c(c2)CCN(CC(=O)N2CCOCC2)C3)ncc1Br` [Compound A127, 2-{5-Bromo-2-[2-(2-morpholin-4-yl-2-oxo-ethyl)-1,2,3,4-tetrahydro-isoquinolin-6-ylamino]-pyrimidin-4-ylamino}-N-methyl-benzamide], over 0.01 µM.
For `O=C(O)C[C@H](NC(=O)OCc1ccccc1)C(=O)N1CCc2cc(Nc3ncc(C(F)(F)F)c(NC4CC4)n3)ccc2C1` (racemic) [Compound A67], the IC50 was under 0.001 µM.
On the same count and under the same terms, under `FC(F)(F)c1cnc(Nc2ccc3c(c2)CCN(C2CNC2)C3)nc1NC1CC1` [Compound A52] stands under 0.001 µM.
On the same count and under the same terms, under `CCNC(=O)N1CCc2cc(Nc3ncc(C(F)(F)F)c(NC4CC4)n3)ccc2C1` [Compound A6] stands 0.001 to 0.01 µM; under `Cn1cc(CN2CCc3cc(Nc4ncc(C(F)(F)F)c(NC5CC5)n4)ccc3C2)cn1` [Compound A62], under 0.001 µM.
Turning to `O=C(OCCO)c1cnc(Nc2ccc3c(c2)CCNC3)nc1NC1CC1` [Compound A33], the IC50 is over 0.01 µM.
Still for that read-out and setting: under `CC(C)(C)OC(=O)N1CCc2cc(Nc3ncc([N+](=O)O)c(NC4CC4)n3)ccc2C1` [Compound A21] stands over 0.01 µM; under `Cn1nccc1CN1CCc2cc(Nc3ncc(C(F)(F)F)c(NC4CC4)n3)ccc2C1` [Compound A63], under 0.001 µM; under `FC(F)(F)c1cnc(Nc2ccc3c(c2)CN(C2CNC2)CC3)nc1NC1CC1` [Compound A110], under 0.001 µM.
With `O=C(O)CCN1CCc2cc(Nc3ncc(C(F)(F)F)c(NC4CC4)n3)ccc2C1` [Compound A7], the IC50 was under 0.001 µM.
Still for that read-out and setting: to `Oc1ccc(CN2CCc3cc(Nc4ncc(C(F)(F)F)c(NC5CC5)n4)ccc3C2)cc1` [Compound A77] belongs under 0.001 µM.

The experiment is the same for the next values; noted with them: Table 2.
For `COc1cc(Nc2ncc(Br)c(Oc3ccccc3C(=O)N(C)CC(C)(C)O)n2)cc(OC)c1OC` [Compound B49], the 50% inhibitory concentration (IC50) was over 1 µM.
Same read-out and setting: to `COC(=O)c1ccccc1Oc1nc(Nc2ccc(OC(F)(F)F)cc2)ncc1Br` [Compound B13] belongs over 1 µM; to `COC(=O)c1ccccc1Oc1nc(Nc2ccc3[nH]cnc3c2)ncc1Br` [Compound B22], over 1 µM.
The same measure, in the same setting: under `COC(=O)c1ccccc1Oc1nc(Nc2ccc3c(c2)OCO3)ncc1Br` [Compound B20] stands over 1 µM.
The same measure, in the same setting: under `COc1cc(Nc2ncc(Br)c(Oc3ccccc3C(=O)N(C)CCO)n2)cc(OC)c1OC` [Compound B3] stands 0.1 to 1 µM; under `COC(=O)c1ccccc1Oc1nc(Nc2cc(C)c(C)c(C)c2)ncc1Br` [Compound B16], over 1 µM.
For `COC(=O)c1ccccc1Oc1nc(Nc2cccc(C(N)=O)c2)ncc1Br` [Compound B21], the IC50 is over 1 µM.
The same measure, in the same setting: to `COC(=O)c1ccccc1Oc1nc(Nc2ccc3[nH]ccc3c2)ncc1Br` [Compound B31] belongs over 1 µM.

Staying with this experiment, now noted: Table 3.
Regarding `CNC(=O)c1ccccc1Nc1nc(Nc2ccc(OC)c(OC)c2)ncc1Br` [Compound E16, 2-((5-Bromo-2-((3,4-dimethoxyphenyl)amino)pyrimidin-4-yl)amino)-N-methylbenzamide], the IC50 lay in the range of 0.005 to 0.1 µM.
As for `COc1cc(Nc2ncc(Br)c(Nc3ccccc3C(=O)NCC(F)(F)F)n2)cc(OC)c1OC` [Compound E23, 2-((5-Bromo-2-((3,4,5-trimethoxyphenyl)amino)pyrimidin-4-yl)amino)-N-(2,2,2-trifluoroethyl)benzamide], the IC50 lay within 0.005 to 0.1 µM.
In the case of `NCc1ccc(Nc2ncc(C(F)(F)F)c(NC3CC3)n2)cc1` [Compound D3], the IC50 is under 0.005 µM.
On the same count and under the same terms, to `CNC(=O)c1ccccc1Nc1nc(Nc2cccc(OC(F)F)c2)ncc1Br` [Compound E20, 2-((5-Bromo-2-((3-(difluoromethoxy)phenyl)amino)pyrimidin-4-yl)amino)-N-methylbenzamide] belongs over 0.1 µM.
Still for that read-out and setting: to `NC(=O)c1ccc(Nc2ncc(Br)c(Nc3ccccc3CO)n2)cc1` [Compound C14] belongs 0.005 to 0.1 µM; to `COc1cc(Nc2ncc(Br)c(Nc3ccccc3CN3CCN(S(C)(=O)=O)CC3)n2)cc(OC)c1OC` [Compound C22], over 0.1 µM; to `COc1cc(Nc2ncc(Br)c(Nc3ccccc3CN(C)CC#N)n2)cc(OC)c1OC` [Compound C26], 0.005 to 0.1 µM.
Same read-out and setting: under `CNC(=O)c1ccccc1Nc1nc(Nc2cccc(OC)c2)ncc1Br` [Compound E14, 2-((5-Bromo-2-((3-methoxyphenyl)amino)pyrimidin-4-yl)amino)-N-methylbenzamide] stands 0.005 to 0.1 µM.

The values are drawn from patent US20230135635A1, “INHIBITORS OF ULK1/2 AND METHODS OF USING SAME” (SALK INSTITUTE FOR BIOLOGICAL STUDIES, priority 2020, published 2023).
